From patent US10758585B2, “Beautyberry total glycosides extract and preparation method and use thereof” (Suzhou Neupharma Co., Ltd., priority 2012, dated 2020) come the findings set out here.

This assay has as its system SH-SY5Y nerve cells. The experiment in a line: Protective effect against MPP+ induced SH-SY5Y nerve cell injury (MTT cell viability). The note with it: 500 μM MPP+; for protective effect against MPP+ induced SH-SY5Y nerve cell injury: 24 h pre-protection + 24 h co-incubation, MTT, overall statement. It is filed as cell-based. The protocol:
SH-SY5Y nerve cells were purchased from ATTC (American Type Culture Collection, Rockville, Md., U.S.A). The cells was cultured with RPMI1640 medium (a product of Hyclone Company) containing 10% fetal bovine serum, 2 mM/L glutamine, as well as 1% penicillium and streptomycin doubleantibiotics, in the incubator at 37° C. and 5% CO2.
The extract tested was the beautyberry total glycosides extract prepared in Example 5 which contained 37.75 wt % verbascoside and 28.01 wt % Arenarioside. The beautyberry total glycosides extract prepared in Example 5, and stock solutions of verbascoside and Arenarioside prepared in 2.1 above were dissolved and formulated respectively with phosphate buffer (PBS) and the resulted solutions were diluted to test concentrations with RPMI 1640 culture medium. MPP+ solution was prepared by dissolving MPP+ to 1 mM with PBS. The test concentration of MPP+ was 500 μM diluted with the culture medium. MTT was formulated with PBS, at a concentration of 0.5 mg/ml, and was filtered to remove bacteria using a 0.22 μm filter membrane prior to use.
SH-SY5Y nerve cells at a logarithmic growth phase were collected and counted with a cell counter. 200 μl of cell suspension with 4×10^4/ml was added into each well of the 96-well plate (converted to 8×10^3/200 μl of the culture medium) and was subjected to adherent culture in the incubator at 37° C. and 5% CO2 for 24 hours. The experiment included 11 groups: (1) a blank control group, wherein RPMI 1640 culture medium was used, and incubation at 5% CO2 and 37° C. was performed for 24 h; (2) a model group, wherein RPMI 1640 culture medium containing 500 μM MPP+ was used, and incubation at 5% CO2 and 37° C. was performed for 24 h; (3) a high dose group (16 μg/mL), a medium dose group (1.6 μg/mL), and a low dose group (0.16 μg/mL) (equivalent to 10 μM, 1 μM, and 0.1 μM verbascoside, respectively) of tests of the extract of Example 5 in the present invention; (4) a high dose group (10 μM), amedium dose group (1 μM), and a low dose group (0.1 μM) of theverbascoside monomer prepared above; and (5) a high dose group (10 μM), a medium dose group (1 μM), and a low dose group (0.1 μM) of the Arenarioside monomer prepared above; wherein, in each experimental dosage groups of (3), (4), and (5), mother liquid of the drug to be tested was firstly diluted to a set dosage concentration with the RPMI 1640 culture medium, then added at 100 μL into the cells, which were pre-protected at 5% CO2 and 37° C. for 24 h, then supernatant was carefully pipetted and discarded, then, mother liquid of the drug to be tested was diluted to a set dosage concentration with the RPMI 1640 culture medium containing 500 μM MPP+ that was formulated beforehand, then added at 100 μL into the cells, which were proceeded to incubation at 5% CO2 and 37° C. for 24 h. Supernatant was carefully pipetted and discarded, placed upside-down on an absorbent paper and patted dry. After the blank group and themodel group were incubated for 24 h, operations were performed using the same method. 5 parallel wells were provided for each group of the samples. MTT at a concentration of 0.5 mg/ml was added into each well of each group above, and incubated at 5% CO2 and 37° C. for 4 h. Supernatant was carefully pipetted and discarded, placed upside-down on an absorbent paper and patted dry. 200 μL of dimethyl sulfoxide (DMSO) was added into each well, and shaken for 300 s. The absorbance value of each well was determined at OD 570 nm, and cell viability was calculated according to the following formula: […]

For the molecule `CC1O[C@@H](O[C@@H]2C(O)[C@H](OCCc3ccc(O)c(O)c3)OC(CO[C@@H]3OC[C@@H](O)[C@@H](O)C3O)[C@@H]2OC(=O)/C=C/c2ccc(O)c(O)c2)C(O)[C@@H](O)[C@H]1O` (stereo partly drawn) [Arenarioside], the “protective effect against MPP+ induced SH-SY5Y nerve cell injury” value is reported as “has a protective effect”. Further, the “cell viability compared with the model group” value (0.1 μM monomer) is on record as “significant higher cell viability as compared with the model group (p<0.01)”. For the same molecule, the “cell viability compared with the model group” value (1 μM monomer) is “significant higher cell viability as compared with the model group (p<0.01)”.

Regarding `C[C@@H]1O[C@@H](O[C@@H]2[C@@H](O)[C@H](OCCc3ccc(O)c(O)c3)O[C@H](CO)[C@H]2OC(=O)/C=C/c2ccc(O)c(O)c2)[C@H](O)[C@H](O)[C@H]1O` [verbascoside], the “protective effect against MPP+ induced SH-SY5Y nerve cell injury” value was “has a protective effect”. The “cell viability compared with the model group” value (0.1 μM monomer) is given as “significant difference compared to the model group (p<0.01)”. For the setting “1 μM monomer”, the “cell viability compared with the model group” value is given as “significant difference compared to the model group (p<0.01)”.
